According to US4774381A, “Herbicide resistant tobacco” (E. I. Du Pont de Nemours and Company, priority 1985, dated 1988):

Legend:
S4/S4 callus = assay: Callus growth test with chlorsulfuron and structural analogues; format: cell-based, Nicotiana tabacum; conditions: 10 ppb compound, 2 weeks in the dark
Description: (§1) In these growth tests, petri dishes containing C1 agar medium and 10 ppb of the sulfonamide herbicide chlorsulfuron and Compounds A through E were prepared. A sterile filter paper disc was placed in the center of each plate, and inoculated with 250 mg of callus tissue homozygous for the S4 mutation, or callus tissue derived from the haploid parent H1. The resulting cultures were incubated at 25° in the dark for 2 weeks. At the conclusion of the incubation period, filter discs containing callus cells were removed from culture dishes, placed on a Buchner funnel, and gentle suction applied to remove excess water. The resulting callus mass was then carefully scraped from the filter disc and weighed. Four replicates were included in each experiment.

H1 (parent) callus = assay: as above; format: cell-based, Nicotiana tabacum; conditions: 10 ppb compound, 2 weeks in the dark
Description: as §1

[1] = system: "resistant" regenerated plants; conditions: paraquat 10^-5 M; cited from earlier work
control plants = conditions: paraquat 10^-5 M; cited from earlier work
[2] = system: picloram-tolerant tobacco mutants; conditions: cited from earlier work

SMILES | Mean Fresh Weight (S4/S4 callus) | Mean Fresh Weight (H1 (parent) callus) | also measured
COc1cc(OC)nc(NC(=O)NS(=O)(=O)c2ccccc2Cl)n1 [C] | 5.08 g | 0 g | –
Cc1nc(C)nc(NC(=O)NS(=O)(=O)c2ccccc2Cl)n1 [D] | 4.53 g | 0 g | –
COc1nc(NC(=O)NS(=O)(=O)c2ccccc2Cl)nc(OC)n1 [E] | 4.97 g | 0 g | –
COc1cc(C)nc(NC(=O)NS(=O)(=O)c2ccccc2Cl)n1 [B] | 5.60 g | 0 g | –
C[n+]1ccc(-c2cc[n+](C)cc2)cc1 [paraquat] | – | – | time for leaves to bleach to white [1]: 4 to 7 days; time for leaves to bleach to white (average) (control plants): 3.5 days
Cc1cc(C)nc(NC(=O)NS(=O)(=O)c2ccccc2Cl)n1 [A] | 5.16 g | 0 g | –
Nc1c(Cl)c(Cl)nc(C(=O)O)c1Cl [picloram, 4-amino-3,5,6-trichloropicolinic acid] | – | – | seed germination ([2]; 100 μM picloram, seeds of tolerant mutants): germinated; plantlet development ([2]; one month's exposure to 50 μM picloram, plantlets homozygous for tolerance mutations): developed stem callus tissue and degenerated
